Patent US8648066B2 (Exelixis, Inc., priority 2009, dated 2014)

Target: mTOR/GbL/Raptor (mTORC1) (Homo sapiens, UniProt P42345)
Assay: mTOR/GbL/Raptor (mTORC1) ELISA assay
Format: biochemical
Settings: phosphorylation of 4E-BP1; 0.2 nM mTORC1, 10 μM ATP; read-out: IC50 in this assay (mTORC1 ELISA)
How it was run: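 Human mTORC1 (0.2 nM) phosphorylated 50 nM His-tagged 4E-BP1 with 10 µM ATP in HEPES pH 7.2 containing 10 mM MnCl2, 120 min at ambient temperature. Substrate was captured on Ni-chelate plates; phospho-4E-BP1 was detected by primary antibody and HRP secondary with luminescence.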

Structure (SMILES)	IC50
Cc1nc2ccc(-c3ccc4c(c3)CN(c3ncnc5c(Cl)cc(Cl)cc35)CCO4)cc2[nH]1 [Example 32, 4-(6,8-dichloroquinazolin-4-yl)-7-(2-methyl-1H-benzimidazol-6-yl)-2,3,4,5-tetrahydro-1,4-benzoxazepine]	0.05 to 0.25 µM
CNS(=O)(=O)c1cc(-c2ccc3c(c2)CN(c2ncnc(C)c2Cc2ccc(F)cc2)CCO3)cnc1N [Example 363, 2-amino-5-(4-{5-[(4-fluorophenyl)methyl]-6-methylpyrimidin-4-yl}-2,3,4,5-tetrahydro-1,4-benzoxazepin-7-yl)-N-methylpyridine-3-sulfonamide]	0.01 to 0.05 µM
CNS(=O)(=O)c1cc(-c2ccc3c(c2)CN(c2ncnc4c2CC(C)(C)C=C4)CCO3)cnc1N [Example 401, 2-amino-5-[4-(6,6-dimethyl-5,6-dihydroquinazolin-4-yl)-2,3,4,5-tetrahydro-1,4-benzoxazepin-7-yl]-N-methylpyridine-3-sulfonamide]	≤ 0.01 µM
COC(=O)Nc1nc2ccc(-c3ccc4c(c3)CN(c3ncnc5cc(OC)c(OC)cc35)CCO4)cc2[nH]1 [Example 111, methyl (6-{4-[6,7-bis(methyloxy)quinazolin-4-yl]-2,3,4,5-tetrahydro-1,4-benzoxazepin-7-yl}-1H-benzimidazol-2-yl)carbamate]	1 to 2 µM
CCNc1nc2ccc(-c3ccc4c(c3)CN(c3nc(CC)nc5ccccc35)CCO4)cc2[nH]1 [Example 260, N-ethyl-6-[4-(2-ethylquinazolin-4-yl)-2,3,4,5-tetrahydro-1,4-benzoxazepin-7-yl]-1H-benzimidazol-2-amine]	0.05 to 0.25 µM
Cc1ncnc(N2CCOc3ccc(-c4ccc(-c5ncc[nH]5)cc4)cc3C2)c1Cc1ccc(F)cc1 [Example 131, 4-{5-[(4-fluorophenyl)methyl]-6-methylpyrimidin-4-yl}-7-[4-(1H-imidazol-2-yl)phenyl]-2,3,4,5-tetrahydro-1,4-benzoxazepine]	≤ 0.01 µM
COc1c(OCc2ccc3ccccc3n2)ccc2c(N3CCOc4ccc(-c5ccc6nc(C)[nH]c6c5)cc4C3)ncnc12 [Example 167, 7-(2-methyl-1H-benzimidazol-6-yl)-4-{8-(methyloxy)-7-[(quinolin-2-ylmethyl)oxy]quinazolin-4-yl}-2,3,4,5-tetrahydro-1,4-benzoxazepine]	≥ 2 µM
CC1=Cc2ncnc(N3CCOc4ccc(-c5cnc(N)c(S(=O)(=O)NCC(C)(C)N)c5)cc4C3)c2CC1(C)C [Example 405, 2-amino-N-(2-amino-2-methylpropyl)-5-[4-(6,6,7-trimethyl-5,6-dihydroquinazolin-4-yl)-2,3,4,5-tetrahydro-1,4-benzoxazepin-7-yl]pyridine-3-sulfonamide]	≤ 0.01 µM
CCNc1nc2ccc(-c3ccc4c(c3)CN(c3nc(C)nc5cc(OC)ccc35)CCO4)cc2[nH]1 [Example 237, N-ethyl-6-{4-[2-methyl-7-(methyloxy)quinazolin-4-yl]-2,3,4,5-tetrahydro-1,4-benzoxazepin-7-yl}-1H-benzimidazol-2-amine]	0.25 to 1 µM
Cc1ncnc(N2CCOc3ccc(-c4cnc(N)nc4)cc3C2)c1Cc1ccc(F)cc1 [Example 153, 5-(4-{5-[(4-fluorophenyl)methyl]-6-methylpyrimidin-4-yl}-2,3,4,5-tetrahydro-1,4-benzoxazepin-7-yl)pyrimidin-2-amine]	≤ 0.01 µM
Cc1ncnc(N2CCOc3ccc(-c4ccc(C(N)=O)cc4)cc3C2)c1Cc1ccc(F)cc1 [Example 170, 4-(4-{5-[(4-fluorophenyl)methyl]-6-methylpyrimidin-4-yl}-2,3,4,5-tetrahydro-1,4-benzoxazepin-7-yl)benzamide]	≤ 0.01 µM
CNC(=O)Nc1ccc(-c2ccc3c(c2)CN(c2nc(C)nc4cc(OC)ccc24)CCO3)cc1 [Example 361, 1-methyl-3-(4-{4-[2-methyl-7-(methyloxy)quinazolin-4-yl]-2,3,4,5-tetrahydro-1,4-benzoxazepin-7-yl}phenyl)urea]	≥ 2 µM
Cc1nc2ccc(-c3ccc4c(c3)CN(c3ncnc5ccc(O)cc35)CCO4)cc2[nH]1 [Example 158, 4-[7-(2-methyl-1H-benzimidazol-6-yl)-2,3-dihydro-1,4-benzoxazepin-4(5H)-yl]quinazolin-6-ol]	0.01 to 0.05 µM
CCNc1nc2ccc(-c3ccc4c(c3)CN(c3ccnc5cc(OC)c(OC)cc35)CCO4)cc2[nH]1 [Example 261, 6-{4-[6,7-bis(methyloxy)quinolin-4-yl]-2,3,4,5-tetrahydro-1,4-benzoxazepin-7-yl}-N-ethyl-1H-benzimidazol-2-amine]	0.25 to 1 µM

Other lines, results leading:

IC50	Structure (SMILES)
0.05 to 0.25 µM	CC1(C)CCc2ncnc(N3CCOc4ccc(-c5cnc(N)c(NS(C)(=O)=O)c5)cc4C3)c2C1 [Example 620, N-{2-amino-5-[4-(6,6-dimethyl-5,6,7,8-tetrahydroquinazolin-4-yl)-2,3,4,5-tetrahydro-1,4-benzoxazepin-7-yl]pyridin-3-yl}methanesulfonamide]
0.25 to 1 µM	CC1(C)CCc2ncnc(N3CCOc4ccc(-c5cncc(NS(C)(=O)=O)c5)cc4C3)c2C1 [Example 634, N-{5-[4-(6,6-dimethyl-5,6,7,8-tetrahydroquinazolin-4-yl)-2,3,4,5-tetrahydro-1,4-benzoxazepin-7-yl]pyridin-3-yl}methanesulfonamide]
1 to 2 µM	CCc1nc(CN(C)C)nc(N2CCOc3ccc(-c4ccc5[nH]c(C)nc5c4)cc3C2)c1C [Example 343, 1-{4-ethyl-5-methyl-6-[7-(2-methyl-1H-benzimidazol-5-yl)-2,3-dihydro-1,4-benzoxazepin-4(5H)-yl]pyrimidin-2-yl}-N,N-dimethylmethanamine]
0.01 to 0.05 µM	CCN(CC)Cc1nc2c(c(N3CCOc4ccc(-c5cnc6nc(C)[nH]c6c5)cc4C3)n1)CC(C)(C)CC2 [Example 602, N-({6,6-dimethyl-4-[7-(2-methyl-1H-imidazo[4,5-b]pyridin-6-yl)-2,3-dihydro-1,4-benzoxazepin-4(5H)-yl]-5,6,7,8-tetrahydroquinazolin-2-yl}methyl)-N-ethylethanamine]
0.01 to 0.05 µM	Cc1nc2cc(-c3ccc4c(c3)CN(c3nc(CCN5CCCC5)nc5c3CC(C)(C)CC5)CCO4)cnc2[nH]1 [Example 497, 4-[6,6-dimethyl-2-(2-pyrrolidin-1-ylethyl)-5,6,7,8-tetrahydroquinazolin-4-yl]-7-(2-methyl-3H-imidazo[4,5-b]pyridin-6-yl)-2,3,4,5-tetrahydro-1,4-benzoxazepine]
0.05 to 0.25 µM	Cc1nc2ccc(-c3ccc4c(c3)CN(c3ncnc5cc(Cl)c(I)cc35)CCO4)cc2[nH]1 [Example 35, 4-(7-chloro-6-iodoquinazolin-4-yl)-7-(2-methyl-1H-benzimidazol-6-yl)-2,3,4,5-tetrahydro-1,4-benzoxazepine]
0.25 to 1 µM	CCNc1nc(C)nc(N2CCOc3ccc(-c4cnc5nc(C)[nH]c5c4)cc3C2)c1C [Example 637, N-ethyl-2,5-dimethyl-6-[7-(2-methyl-1H-imidazo[4,5-b]pyridin-6-yl)-2,3-dihydro-1,4-benzoxazepin-4(5H)-yl]pyrimidin-4-amine]
0.01 to 0.05 µM	CC1(C)CCc2ncnc(N3CCOc4ccc(-c5cnc(N)c(S(=O)(=O)NCC(F)(F)F)c5)cc4C3)c2C1 [Example 365, 2-amino-5-[4-(6,6-dimethyl-5,6,7,8-tetrahydroquinazolin-4-yl)-2,3,4,5-tetrahydro-1,4-benzoxazepin-7-yl]-N-(2,2,2-trifluoroethyl)pyridine-3-sulfonamide]
0.05 to 0.25 µM	CN(C)Cc1nc2c(c(N3CCOc4ccc(-c5ccc(N)nc5)cc4C3)n1)CC(C)(C)CC2 [Example 509, 5-(4-{2-[(dimethylamino)methyl]-6,6-dimethyl-5,6,7,8-tetrahydroquinazolin-4-yl}-2,3,4,5-tetrahydro-1,4-benzoxazepin-7-yl)pyridin-2-amine]
≤ 0.01 µM	Cc1nc2cc(-c3ccc4c(c3)CN(c3nc(N)nc(C)c3Cc3ccc(F)cc3)CCO4)cnc2[nH]1 [Example 690, 5-[(4-fluorophenyl)methyl]-4-methyl-6-[7-(2-methyl-3H-imidazo[4,5-b]pyridin-6-yl)-2,3-dihydro-1,4-benzoxazepin-4(5H)-yl]pyrimidin-2-amine]
0.01 to 0.05 µM	Cc1nc2ncc(-c3ccc4c(c3)CN(c3nc(CN(C)C5CC5)nc5c3CC(C)(C)CC5)CCO4)cc2[nH]1 [Example 604, N-({6,6-dimethyl-4-[7-(2-methyl-1H-imidazo[4,5-b]pyridin-6-yl)-2,3-dihydro-1,4-benzoxazepin-4(5H)-yl]-5,6,7,8-tetrahydroquinazolin-2-yl}methyl)-N-methylcyclopropanamaine]
0.25 to 1 µM	Cc1nc2cc(-c3ccc4c(c3)CN(c3nc(C(C)N5CCCC5)nc5c3CC(C)(C)CC5)CCO4)cnc2[nH]1 (centres unmarked) [Example 496, 4-[6,6-dimethyl-2-(1-pyrrolidin-1-ylethyl)-5,6,7,8-tetrahydroquinazolin-4-yl]-7-(2-methyl-3H-imidazo[4,5-b]pyridin-6-yl)-2,3,4,5-tetrahydro-1,4-benzoxazepine]
≤ 0.01 µM	CCNc1nc2ncc(-c3ccc4c(c3)CN(c3ncnc5c3CC(C)(C)CC5)CCO4)cc2[nH]1 [Example 264, 6-[4-(6,6-dimethyl-5,6,7,8-tetrahydroquinbazolin-4-yl)-2,3,4,5-tetrahydro-1,4-benzoxazepin-7-yl]-N-ethyl-1H-imidazo[4,5-b]pyridin-2-amine]
0.01 to 0.05 µM	CC1CCc2c(ncnc2N2CCOc3ccc(-c4cnc5nc(N)[nH]c5c4)cc3C2)C1 (centres unmarked) [Example 179, 6-[4-(7-methyl-5,6,7,8-tetrahydroquinazolin-4-yl)-2,3,4,5-tetrahydro-1,4-benzoxazepin-7-yl]-1H-imidazo[4,5-b]pyridin-2-amine]
≤ 0.01 µM	CC1=CC(C)(C)Cc2c1ncnc2N1CCOc2ccc(-c3cnc4nc(C)[nH]c4c3)cc2C1 [Example 554, 7-(2-methyl-1H-imidazo[4,5-b]pyridin-6-yl)-4-(6,6,8-trimethyl-5,6-dihydroquinazolin-4-yl)-2,3,4,5-tetrahydro-1,4-benzoxazepine]
